Assay results as given in US9480671B2, “Reduction of risk of obesity” (Nestec S.A., priority 2009, dated 2016).

Columns and labels:
[1] = Fatty acid composition in plasma phospholipids of guinea pig pups after suckling/weaning diet; format: in vivo; conditions: compared to the control group, Table 2
Excerpt: (§1) This example investigates the effect of feeding diets supplemented or not with ARA to newborn guinea pig pups on the development of total fat mass of the pups in the post-weaning period. The infant guinea pig is considered to be a good animal model to study the development fat mass in human infants: Indeed, like newborn human infants, guinea pig pups are born with an appreciable amount of body fat whilst newborn rat and mice pups are very lean. Newborn male guinea pigs were divided into two groups with 20 animals per group. Each group was fed a suckling/weaning diet in which 44% of the energy was supplied by fat for 21 days. The different diets were isocaloric and differed only in their ARA contents. The ARA diet contained 1.5% ARA based on total fatty acids and the control diet contained no ARA. The group receiving ARA diet is coded “ARA diet” or “+AA” in the below and in the figures. The group receiving no ARA is coded “control diet” or −AA″ in the below and in the figures. The levels of linoleic acid and α-linolenic acid were kept relatively constant between the diets such that the ratio of linoleic acid to α-linolenic acid was about 35. […] Body weight and fat mass were recorded at days 21, 51, 79, 107, 128 and 136 and plasma fatty acid composition, and plasma insulin concentrations were recorded at day 21 and day 136.

[2] = Fatty acid composition in plasma triglycerides of guinea pig pups after suckling/weaning diet; format: in vivo; conditions: compared to the control group, Table 3
Excerpt: as §1

[3] = tested on: clonal preadipocytes; conditions: compared to PPAR agonists or saturated, mono-unsaturated and n-3 polyunsaturated fatty acids; cited from earlier work
[4] = generally observed, estimated; cited from earlier work

Structure (SMILES)	incorporation of ARA in plasma phospholipids [1]	incorporation of ARA in plasma triglycerides [2]	differentiation of clonal preadipocytes [3]	maximum amount of ARA in the diet that does not induce adverse effects [4]
CCCCC/C=C\C/C=C\C/C=C\C/C=C\CCCC(=O)O [ARA, arachidonic acid (C20:4n-6)]	higher	higher	substantially promoted	about 100 mg ARA/kg/day
CCCCC[C@H](O)/C=C/[C@@H]1[C@H]2C/C(=C/CCCC(=O)O)C[C@H]2C[C@H]1O [carbacyclin, reference compound]	–	–	mimicked	–
